Here are results for one substance from patent publication US20060014717A1, “Therapeutic compositions for use in prophylaxis or treatment of diarrheas” (priority 2002, published 2006).

Assay in all cases: Binding of 35S-labeled Helicobacter species to glycosphingolipids on thin-layer chromatograms
Assay [1] deals with H. canis CCUG 33835. Details: species or system Helicobacter canis; key: An significant darkening on the autoradiogram when 2 μg of the glycosphingolipid was applied on the thin-layer plate is denoted by +; − denotes no binding. To be noted: 2 μg (40 μg for the glycosphingolipid fraction) on TLC plates. The source says:
(§1) Gastric species examined in the present study included, Helicobacter mustelae ferret isolates from the National Collection of Type Cultures (NCTC) and the Culture Collection of the University of Gothenberg (CCUG), NCTC 12198/CCUG 25175 (equivalent strains from different sources tested), CCUG 23950 and CCUG 23951, Helicobacterfelis CCUG 28539 from a cat, in addition, H. pylori strains CCUG 17874, CCUG 17875 and a clinical isolate 119/95 were used. Enterohepatic helicobacters of animal origin were purchased from the CCUG including, Helicobacter canes CCUG 33835, Helicobacter bilis CCUG 38995, Helicobacter hepaticus CCUG 33637, and Helicobacterfennelliae (CCUG 18820).
(§2) Binding of Helicobacter spp. to glycosphingolipids, both acid and non-acidfractions. Glycosphingolipids were isolated by standard procedures (Karlsson, 1987). The identity of the purified glycosphingolipids was confirmed by mass spectrometry (Samuelsson et al., 1990), proton NMR spectroscopy (Koerner et al., 1983) and degradation studies (Stellner et al., 1973; Yang and Hakomori, 1971).
(§3) Mixtures of glycosphingolipids (40 μg/lane) or pure compounds (2 μg/lane) were subsequently separated using thin-layer chromatography (TLC) on glass- or aluminum-backed silica gel 60 HPTLC plates (Merck, Darmstadt, Germany), with chloroform/methanot/water (60:35:8, by volume) as solvent system. Chemical detection was accomplished by anisaldehyde (Waldi, 1962). Helicobacter spp. were subjected to ^35S-labeling (Angstrom et al., 1998) and suspended in PBS (10^8 CFU/ml) with a specific activity of approximately 1 cpm per 100 organisms. Binding of the labeled-bacteria to glycosphingolipids separated by TLC was achieved using a bacterial-overlay technique coupled with autoradiography detection using XAR-5 X-ray films (Eastman Kodak, Rochester, N.Y.) as previously described (Hansson et al., 1985).

Assay [2] concerns H. pylori CCUG 17874. Also on record: species or system Helicobacter pylori; key: An significant darkening on the autoradiogram when 2 μg of the glycosphingolipid was applied on the thin-layer plate is denoted by +; − denotes no binding. Conditions: 2 μg (40 μg for the glycosphingolipid fraction) on TLC plates.
Source text: as §1, §2, §3

The subject of assay [3] is H. hepaticus CCUG 33637. Also on record: species or system Helicobacter hepaticus; key: An significant darkening on the autoradiogram when 2 μg of the glycosphingolipid was applied on the thin-layer plate is denoted by +; − denotes no binding. Conditions: 2 μg (40 μg for the glycosphingolipid fraction) on TLC plates.
Source text: as §1, §2, §3

For assay [4], the system named is H. felis CCUG 28539. Also on record: species or system Helicobacter felis; key: An significant darkening on the autoradiogram when 2 μg of the glycosphingolipid was applied on the thin-layer plate is denoted by +; − denotes no binding. Conditions: 2 μg (40 μg for the glycosphingolipid fraction) on TLC plates.
Source text: as §1, §2, §3

The subject of assay [5] is H. pylori CCUG 17875. Details: species or system Helicobacter pylori; key: + denotes a significant darkening on the autoradiogram when 2 μg (or 40 μg in the case of the last sample) was applied to TLC plates; − denotes no binding. To be noted: 2 μg (40 μg for the glycosphingolipid fraction) on TLC plates.
Source text: as §1, §2, §3

Assay [6] deals with H. pylori CCUG 17875. Details: species or system Helicobacter pylori.
Source text: as §1, §2
Mixtures of glycosphingolipids (40 μg/lane) or pure compounds (2 μg/lane) were subsequently separated using thin-layer chromatography (TLC) on glass- or aluminum-backed silica gel 60 HPTLC plates (Merck, Darmstadt, Germany), with chloroform/methanot/water (60:35:8, by volume) as solvent system. […]

Assay [7] has as its system H. mustelae CCUG 23950 & 23951. Details: species or system Helicobacter mustelae; key: An significant darkening on the autoradiogram when 2 μg of the glycosphingolipid was applied on the thin-layer plate is denoted by +; − denotes no binding. Conditions: 2 μg (40 μg for the glycosphingolipid fraction) on TLC plates.
Source text: as §1, §2, §3

Assay [8] has as its system H. mustelae 25715. Also on record: species or system Helicobacter mustelae; key: An significant darkening on the autoradiogram when 2 μg of the glycosphingolipid was applied on the thin-layer plate is denoted by +; − denotes no binding. Conditions: 2 μg (40 μg for the glycosphingolipid fraction) on TLC plates.
Source text: as §1, §2, §3

For assay [9], the system named is H. bilis CCUG 38995. Also on record: species or system Helicobacter bilis; key: An significant darkening on the autoradiogram when 2 μg of the glycosphingolipid was applied on the thin-layer plate is denoted by +; − denotes no binding. Conditions: 2 μg (40 μg for the glycosphingolipid fraction) on TLC plates.
Source text: as §1, §2, §3

Regarding “Fucα2Galβ3(Fucα4)GlcNAcβ3Galβ4Glcβ1Cer [No. 25]”, the “Binding of glycosphingolipids to H.canis 33835” value in [1] is listed as “−”. The “Binding of glycosphingolipids to H.pylori 17874” value in assay [2] is recorded as “−”. The “Binding of glycosphingolipids to H.hepaticus 33637” value in [3] is “−”. Besides, in assay [4], the “Binding of glycosphingolipids to H.felis 28539” value is listed as “−”. In [5], the “Binding of glycosphingolipids to H.pylori 17875” value is “+”. The “Binding of H. pylori CCUG 17875 to glycosphingolipid, in words” value in assay [6] is listed as “only observed for H. pylori CCUG 17875”. In addition, in assay [7], the “Binding of glycosphingolipids to H.mustelae 23950 & 23951” value is listed as “−”. For the same substance, in [8], the “Binding of glycosphingolipids to H.mustelae 25715” value was “−”. Further, the “Binding of glycosphingolipids to H.bilis 38995” value in [9] is reported as “−”.
